One test relates to A549. The experiment in a line: Cytotoxicity against human A549 cells after 3 days by SRB assay. It counts as functional, cell-based. The conditions noted are these: A549, 72 h.
For another test, the system named is MCF7. The experiment in a line: Cytotoxicity against human MCF7 cells after 3 days by SRB assay. Format: functional, cell-based. The conditions noted are these: MCF7, 72 h.

Molecules are shown by their SMILES. ≈ marks a conversion by molar mass, not a printed value.

As a reminder, the IC50 is the midpoint of a concentration-inhibition curve. Lower therefore signals greater potency in that assay.

In the case of `C=C(C)[C@H]1Cc2c(ccc3c(=O)c4c(oc23)COc2cc(OC)c(OC)cc2-4)O1` [DEHYDROROTENONE], the IC50 with A549 and with MCF7 was above 5 µg/mL throughout.
In the case of `COc1cc(OC)c(-c2coc3cc4occc4cc3c2=O)cc1OC` [ISOELLIPTOL], the half-inhibitory concentration (IC50) with A549 was determined as 1.6 µg/mL (≈ 4.54 µM); with MCF7 it was 0.8 µg/mL (≈ 2.27 µM).
With `c1cc2cc3c(cc2o1)OC[C@H]1c2cc4c(cc2O[C@@H]31)OCO4` [NEODULIN], the IC50 in the test with A549 and in the test with MCF7 was above 5 µg/mL each time.
Consider `COc1cc2c(cc1-c1cc3cc4ccoc4cc3oc1=O)OCO2` [PACHYRRIZINE], for which the IC50 in the test on A549 is above 5 µg/mL; in the test on MCF7, 3.6 µg/mL (≈ 10.7 µM).
Regarding `CC1(C)Oc2cc3c(cc2CC1O)[C@@H]1Oc2cc(O)ccc2[C@@H]1CO3` (some centres undefined) [RAUTANDIOL A], the IC50 in the test on A549 and with MCF7 was above 5 µg/mL each time.
On to `CC(C)(O)C1Cc2cc3c(cc2O1)OC[C@H]1c2ccc(O)cc2O[C@@H]31` (some centres undefined) [RAUTANDIOL B], for which the IC50 in the test with A549 and with MCF7 was above 5 µg/mL throughout.
Take `C=C(C)[C@H]1Cc2c(ccc3c2O[C@@H]2COc4cc(OC)c(OC)cc4[C@@H]2C3=O)O1` [ROTENONE]: the results for the IC50 in the test with A549 and with MCF7 were 0.04 µg/mL (≈ 0.101 µM) and 0.008 µg/mL (≈ 0.0203 µM), respectively.

These data come from ChEMBL document CHEMBL1157294, “Rautandiols A and B, pterocarpans and cytotoxic constituents from Neorautanenia mitis” (J Nat Prod, 2006).
